In patent US20260250247A1, “NOVEL INDOLINE DERIVATIVE AND USE THEREOF” (CK REGEON INC., priority 2023, published 2026):

How the values were obtained:
[1] = system: lipid droplets / PPARγ in liver tissue; assay: Liver Oil Red O staining and PPARγ immunohistochemistry in MASH mice; format: in vivo, C57BL/6N mice; conditions: 25 mg/kg/day orally for 4 weeks
Experimental: (§1) Five-week-old wild-type male C57BL/6N mice were purchased from Orient Bio Co., Ltd. They were allowed to acclimate to the laboratory environment for one week. Mice weighing 18-20 g on average were used in the experiment. To ensure ethical and scientific validity and efficient management of animal experiments, the experiment was conducted with the approval of the Institutional Review Board (IACUC-A-202205-1472-01) of Severance Hospital, Yonsei University College of Medicine.
(§2) The mice were divided into a normal group (NCD) and a high-fat diet group (HFD). The normal group (NCD) was fed a normal chow diet (NCD, Teklad Global 18% protein rodent diet), and the high-fat diet group (HFD) was fed a high-fat diet (HFD, D12492) in which fat accounted for 60% of the total calories, for 8 weeks.
(§3) Mice induced with metabolic dysfunction-associated steatohepatitis (MASH) (hereinafter, referred to as MASH or MASH group) were prepared by administering CCl4 intraperitoneally twice a week for 4 weeks after feeding the high-fat diet (HFD) for 8 weeks. The […] was diluted with corn oil at a ratio of 1:19 and injected at a dosage of 2 mL/kg. The normal group (NOD) was administered the same volume of physiological saline.
(§4) The animals were divided into 7 groups, each with 10 animals.
It was investigated whether the accumulation of triglycerides in the liver is suppressed effectively. For this purpose, liver tissue was extracted from each group, and it was prepared into 10-μm thick cryosections, which were then stained with Oil Red O. Details are as follows. After preparing the 7 groups, the animals were euthanized using carbon dioxide and the liver tissues were extracted. A certain area of the extracted liver tissue was cryosectioned to 10 μm thickness, fixed in 4% neutral paraformaldehyde for 20 minutes at room temperature, and washed with 70% isopropanol (Duksan Pure Chemicals). After staining with the Oil Red O (Sigma-Aldrich) reagent for 20 minutes, the sections were washed thoroughly three times with distilled water. The tissue was counterstained with Mayer's hematoxylin. Then, Oil Red O staining images were visualized using a bright-field microscope (Nikon TE-2000U).
After preparing the 7 groups, the animals were sacrificed using carbon dioxide and the liver tissues were extracted. The extracted tissues were fixed in 4% neutral paraformaldehyde and embedded in paraffin to prepare sections. The paraffin sections were cut to 4-μm thickness, deparaffinized, and then rehydrated. For antigen exposure, slides were autoclaved in a 10 mM sodium citrate buffer (pH 6.0). To block endogenous peroxidase activity prior to peroxidase IHC analysis, the tissues were incubated with 0.3% H2O2 for 10 minutes. The incubated sections were treated with phosphate-buffered saline (PBS) containing 10% NGS and 0.3% Tween-20 for 1 hour at room temperature, treated with primary antibodies of anti-PPARγ (1:50; Abcam), and incubated overnight at 4° C.
The sections treated with the primary antibodies were washed with PBS and incubated with biotinylated anti-mouse (1:400; Dako) or anti-rabbit (1:400; Dako) secondary antibodies for 1 hour at room temperature. The sections incubated with the secondary antibodies were stained with 3,3′-diaminobenzidine (DAB; Dako) for 3-7 minutes and then counterstained with Mayer's haematoxylin. All incubations were performed in a humid chamber. After the staining, images were taken and analyzed using a bright-field microscope (Nikon TE-2000U).

[2] = system: mice induced with metabolic dysfunction-associated steatohepatitis (MASH); assay: Liver fibrosis score from collagen staining (Picrosirius red) in MASH mice; format: in vivo, C57BL/6N mice; conditions: 25 mg/kg/day orally for 4 weeks, mean±SD, normal group 0, MASH group 3.11
Experimental: as §1, §2, §3, §4
After preparing the 7 groups, the animals were euthanized using carbon dioxide and the liver tissues were extracted. The extracted tissues were fixed in 4% neutral paraformaldehyde and embedded in paraffin to prepare sections. The paraffin sections were cut to 4-μm thickness, deparaffinized, and then rehydrated. The hydrated sections were stained with a Weigert's iron hematoxylin solution for 8 minutes and then with Picrosirius red for 1 hour. Collagen fibers were stained red and nuclei were stained blue. The sections were photographed using a bright-field microscope (Nikon TE-2000U).
The main mechanism of nonalcoholic fatty liver disease is the induction of hepatic stellate cell activation, which induces collagen production and leads to liver fibrosis due to collagen accumulation. From the result of collagen staining (Picrosirius red) for observing the total amount of collagen deposition in Test Example 3-6, the liver fibrosis score was analyzed. Stages 2 to 3 were diagnosed as nonalcoholic fatty liver disease (MASH) (M. Brunt et al., 2005).
All quantitative data are presented as mean±standard deviation (SD). In each experiment, all measurements were made at least three times, and data were analyzed using the two-tailed, unpaired Student's t test. P values of <0.05 were considered statistically significant.

[3] = biological target: CXXC5-Dvl interaction (PDZ domain of Dvl (dishevelled) protein / PTD-DBM-FITC); assay: CXXC5-Dvl binding inhibition, competition of PTD-DBM-FITC on plate-bound Dvl PDZ domain; conditions: purified Dvl PDZ domain 5 μg/mL, 10 μM PTD-DBM-FITC, compounds 0.001-100 μM, FITC fluorescence
Experimental: 5 μg/mL of the purified PDZ domain ofDvl (dishevelled) protein was attached to the bottom of a 96-well black immunoplate and left in a chamber at 4° C. for one day. The next day, each well was washed with PBS and 10 μM PTD-DBM-FITC was added. After incubation at room temperature for 3 hours, each well was washed with PBS. Each well was treated with the indoline derivatives at various concentrations (100, 10, 1, 0.1, 0.01, and 0.001 μM) in 100 μL of PBS. After washing with a buffer, fluorescence was measured by FITC using a microplate reader. A competition binding curve showing the degree of CXXC5-Dvl PPI inhibition was constructed using the GraphPad Prism software, and the IC50 value was calculated. […] CK090), and the intermediate compound 5-cyanoindirubin as controls.

3T3-L1 pre-adipocytes = assay: Inhibition of adipocyte differentiation and lipid accumulation, Oil Red O; format: cell-based; conditions: Mus musculus, 192 h; 3T3-L1, compound 1 μM, MDI-induced differentiation for 8 days, Oil Red O eluted, absorbance 544 nm; read-out: lipid accumulation rate
Experimental: 3T3-L1 cells were seeded in a 6-well plate at a density of […] cells per well. The cells were grown to 100% confluency in Dulbecco's modified Eagle's medium (DMEM) supplemented with 10% bovine calf serum (BCS; GIBCO). Two days after reaching 100% confluency, differentiation was induced with or without treatment with the indoline compound at a concentration of 1 μM in DMEM containing 10% fetal bovine serum (FBS; GIBCO) and MDI (520 μM methylisobutylxanthine (IBMX; Sigma-Aldrich), 1 μM dexamethasone (Sigma-Aldrich), and 5 μM insulin (GIBCO)). On day 3, the medium was replaced with DMEM containing 10% FBS and 5 μM insulin with or without the indoline compound, and then with a fresh identical medium every 2 days. After differentiation for 8 days, the culture medium was removed, and the cells were washed with PBS and then fixed with 10% formaldehyde for 1 hour. After removing the 10% formaldehyde, the cells were washed thoroughly with distilled water. After that, 60% isopropanol was added and immediately then removed. After washing with distilled water, lipid droplets were stained with an Oil Red O dye solution for 20 minutes and then washed with distilled water. The cells were counterstained with Mayer's hematoxylin. Oil Red O images were visualized using a bright-field microscope (Nikon TE-2000U). To quantify the accumulated lipids, Oil Red O was eluted by adding isopropanol, and absorbance was measured spectrophotometrically at 544 nm using a multi-plate reader.
As A3051 (KY19382) and A3334, self-developed and synthesized materials were used. As BIO, or GSK 3 Inhibitor IX, also known as 6-bromoindirubin-3′-oxime, HY-10580 was purchased commercially.
In FIG. 2, the undifferentiated group (Un Diff) refers to undifferentiated adipocytes, or preadipocytes that had not been induced to differentiate, and the differentiated group (Diff) refers to fully differentiated adipocytes.

| SMILES | lipid droplet formation and lipid infiltration in liver, Oil Red O staining [1] | Degree of liver fibrosis (fibrosis score) [2] | Degree of liver fibrosis (fibrosis score) ([2]; listed as CK004) | IC50 [3] [nM] | activity at 1 µM (3T3-L1 pre-adipocytes) [%] |
| --- | --- | --- | --- | --- | --- |
| CN1CCN(CCO/N=C2/C(=C3/C(=O)Nc4ccc(C#N)cc43)Nc3ccccc32)CC1 [Example 4, (2Z,3E)-3-((2-(4-methylpiperazin-1-yl)ethoxy)imino)-2′-oxo-[2,3′-biindolinylidene]-5′-carbonitrile] | a significant effect of inhibiting lipid infiltration at a level similar to that of the normal group (NCD) | 0.67 | 0.67 | 20.9 | 26 |
| N#Cc1ccc2c(c1)/C(=C1/Nc3ccccc3/C1=N\OCCN1CCNCC1)C(=O)N2 [Example 1, (2Z,3E)-2′-oxo-3-((2-(piperazin-1-yl)ethoxy)imino)-[2,3′-biindolinylidene]-5′-carbonitrile] | the size and number of lipid droplets were significantly reduced | 2.00 | – | 19.3 | 32.2 |
| N#Cc1ccc2c(c1)/C(=C1/Nc3ccccc3/C1=N\OCCN1CCSCC1)C(=O)N2 [Example 3, (2Z,3E)-2′-oxo-3-((2-thiomorpholinoethoxy)imino)-[2,3′-biindolinylidene]-5′-carbonitrile] | a significant effect of inhibiting lipid infiltration at a level similar to that of the normal group (NCD) | 1.56 | – | 5.54 | 28.9 |
| N#Cc1ccc2c(c1)/C(=C1/Nc3ccccc3/C1=N\OCCN1CCOCC1)C(=O)N2 [Example 2, (2Z,3E)-3-((2-morpholinoethoxy)imino)-2′-oxo-[2,3′-biindolinylidene]-5′-carbonitrile] | the size and number of lipid droplets were significantly reduced | 1.85 | – | 8.61 | 32.3 |
